# From patent US20260174673A1, “COMPOSITIONS AND METHODS USING A COMBINATION OF OLEUROPEIN AND TAURINE” (SOCIÉTÉ DES PRODUITS NESTLÉ S.A., priority 2022, published 2026)
# System: myotubes differentiated from C2C12 cells
# Assay: Mitochondrial calcium rise in C2C12 myotubes (mitochondrial aequorin luminescence)
# Format: cell-based
# Conditions: C2C12-derived myotubes, taurine alone at the indicated concentrations (μM) vs. control, compounds added 2 hours before measurement, 28 experiments, P<0.05 one-way ANOVA
# Experimental: To test the effect of oleuropein (or oleuropein aglycone), taurine and their combination in living cells, the inventors measured mitochondrial calcium rise in myotubes differentiated from C2C12 cells. C2C12 cells were purchased from ATCC. C2C12 cells were seeded in 96-well plates at a density of 8000 cells per well in DMEM high glucose (Gibco)+10% fetal calf serum. Myotubes were differentiated by growing the C2C12 cells in DMEM containing 2% horse serum, for 4 days. Mitochondrial calcium measurements were carried out using myotubes infected with the adenovirus (from Sirion biotech) expressing the mitochondrially targeted calcium sensor mitochondrial mutated aequorin (Montero et al., 2002 Biochem J. 2002 Jul. 15; 365(Pt 2): 451-9). For aequorin reconstitution, 24 hours after infection, myotubes were incubated for 2 h at room temperature (22±°C.) in standard medium (145 mM NaCl, 5 mM KCl, 1 mM MgCl2, 1 mM CaCl2, 10 mM glucose and 10 mM Hepes, pH 7.4) with 1 μM wild-type coelenterazine. […] Luminescence was measured at the FLIPR Tetra Aequorin (Molecular Devices). Calibration of the luminescence data into calcium concentration was carried out using an algorithm as described previously (Montero et al, 2002, Biochem J. 2002 Jul. 15; 365(Pt 2): 451-9)). Custom module analysis based on Excel (Microsoft) and GhaphPad Prism 7.02 (GraphPad) software was used for quantification.
smiles,measurement,setting,value
"NCCS(=O)(=O)O [Taurine, 2-aminoethanesulfonic acid]","integrated mitochondrial calcium rise, evoked by 5 mM caffeine",,enhances mitochondrial Ca2+ elevation
same,"integrated mitochondrial calcium rise, evoked by 5 mM caffeine",listed as taurine,enhances mitochondrial function
